According to US6417212B1, “Modulators of peroxisome proliferator activated receptors” (Eli Lilly & Company, priority 1999, dated 2002):

What was measured:
[1] = tested on: Hu apoAI transgenic mice; test: Evaluation of triglyceride and cholesterol levels in Hu apoAI transgenic mice; assay type: in vivo; conditions: for change in vivo at 30 mg/kg / inhibition in vivo at 30 mg/kg: Mus musculus, 168 h, 30 mg/kg daily oral gavage for 7 days; for change in vivo at 30 mg/kg: pooled sera, read-out: % HDLc Increase (serum, FPLC area under the curve, over vehicle); for inhibition in vivo at 30 mg/kg: serum 3 hours after dosing on day 7, read-out: % Triglyceride Decrease (serum, over mice receiving vehicle)
Description: After an acclimation period of 2 weeks, animals were individually identified by ear notches, weighed, and assigned to groups based on body weight. Beginning the following morning, mice were dosed daily by oral gavage for 7 days using a 20 gauge, 11⁄2 curved disposable feeding needle (Popper & Sons). […] Prior to termination on day 7, mice were weighed and dosed. Three hours after dosing, animals were anesthetized by inhalation of isoflurane (2-4%; Abbott Laboratories, Chicago, Ill.) and blood obtained via cardiac puncture (0.7-1.0 ml). Whole blood was transferred to serum separator tubes (Vacutainer SST), chilled on ice, and permitted to clot. Serum was obtained after centrifugation at 4° C. and frozen until analysis for triglycerides, total cholesterol, compound levels, and serum lipoprotein profile by fast protein liquid chromatography (FPLC) coupled to an inline detection system. After sacrifice by cervical dislocation, the liver, heart and epididymal fat pads were excised and weighed. […] The percentage decrease in triglyceride serum levels in mice receiving a compound of the invention over mice receiving vehicle are reported in Table 2. […] The absorbance of the dye produced is linearly related to the analyte in the sample. The assays were further modified in our laboratory for use in a 96 well format. […] An additional aliquot of sample, pipetted to a third well and diluted in 200 μl water, provided a blank for each specimen. […] All samples from an experiment were assayed at the same time to minimize inter-assay variability. Serum lipoproteins were separated and cholesterol quantitated with an in-line detection system. […] The change in voltage corresponding to change in cholesterol concentration was plotted vs time and the area under the curve corresponding to the elution of VLDL, LDL and HDL was calculated using Perkin Elmer Turbochrome software.

[2] = tested on: db/db mice; test: Evaluation of glucose levels in db/db mice; assay type: in vivo; conditions: Mus musculus, 168 h; 30 mg/kg daily oral gavage for 7 days; 100% = glucose not different from lean values; read-out: Glucose Normalisation
Description: After an acclimation period of 2 weeks, animals were individually identified by ear notches, weighed, and bled via the tail vein for determination of initial glucose levels. Blood was collected (100 μl) from unfasted animals by wrapping each mouse in a towel, cutting the tip of the tail with a scalpel, and milking blood from the tail into a heparinized capillary tube (Fisher) balanced on the edge of the bench. Sample was discharged into a heparinized microtainer with gel separator (VWR) and retained on ice. Plasma was obtained after centrifugation at 4° C. and glucose measured immediately. Remaining plasma was frozen until the completion of the experiment, when glucose and triglycerides were assayed in all samples. Animals were grouped based on initial glucose levels and body weights. Beginning the following morning, mice were dosed daily by oral gavage for 7 days using a 20 gauge, 1½″ curved disposable feeding needle. […] On day 7, mice were weighed and bled (tail vein) 3 hours after dosing. Twenty-four hours after the 7th dose (i.e., day 8), animals were bled again (tail vein). Samples obtained from conscious animals on days 0, 7 and 8 were assayed for glucose. After the 24 hour bleed, animals were weighed and dosed for the final time. Three hours after dosing on day 8, animals were anesthetized by inhalation of isoflurane and blood obtained via cardiac puncture (0.5-0.7 ml). Whole blood was transferred to serum separator tubes, chilled on ice and permitted to clot. Serum was obtained after centrifugation at 4° C. and frozen until analysis for compound levels. After sacrifice by cervical dislocation, the liver, heart and epididymal fat pads were excised and weighed.
The absorbance of the dye produced is linearly related to the analyte in the sample. The assays were further modified in our laboratory for use in a 96 well format. […] An additional aliquot of sample, pipetted to a third well and diluted in 200 μl water, provided a blank for each specimen. […] Sample absorbances were compared to a standard curve (100-800, 10-500, and 100-400 mg/dl for glucose, triglycerides and total cholesterol, respectively). […] All samples from an experiment were assayed at the same time to minimize inter-assay variability.

[3] = tested on: huPPARα; test: Cotransfection assay in CV-1 cells, huPPARα (GAL4 chimeric system); assay type: cell-based, human; conditions: luciferase reporter, relative to PPARα agonist reference molecule
Description: DNA-dependent binding (ABCD binding) was carried out using SPA technology with PPAR receptors. Tritium-labeled PPARγ and PPARα agonists were used as radioligands for generating displacement curves and IC50 values with compounds of the invention. Cotransfection assays were carried out in CV-1 cells. The reporter plasmid contained an acylCoA oxidase (AOX) PPRE and TK promoter upstream of the luciferase reporter cDNA. Appropriate PPARs and RXRα were constitutively expressed using plasmids containing the CMV promoter. For PPARα and PPARβ, interference by endogenous PPARγ in CV-1 cells was an issue. In order to eliminate such interference, a GAL4 chimeric system was used in which the DNA binding domain of the transfected PPAR was replaced by that of GAL4, and the GAL4 response element was utilized in place of the AOX PPRE. Cotransfection efficacy was determined relative to PPARα agonist and […] reference molecules. Efficacies were determined by computer fit to a concentration-response curve, or in some cases at a single high concentration of agonist (10 μM). For binding or cotransfection studies with receptors other than PPARs, similar assays were carried out using appropriate ligands, receptors, reporter constructs, etc., for that particular receptor.
These studies were carried out to evaluate the ability of compounds of the invention to bind to and/or activate various nuclear transcription factors, particularly huPPARα (“hu” indicates “human”) and huPPARγ. These studies provide in vitro data concerning efficacy and selectivity of compounds of the invention. Furthermore, binding and cotransfection data for compounds of the invention were compared with corresponding data for marketed compounds that act on either huPPARα or huPPARγ.

[4] = fenofibrate 100 mg/kg oral, 7 days, vs vehicle

Structure (SMILES) | change in vivo at 30 mg/kg [1] [%] | inhibition in vivo at 30 mg/kg [1] [%] | inhibition in vivo at 30 mg/kg [2] [%] | further results
Cc1oc(-c2ccc(-c3ccccc3)cc2)nc1CCOc1ccc(OC(C)(C)C(=O)O)cc1 [Example 1, 2-{4-[2-(2-Biphenyl-4-yl-5-methyloxazol-4-yl)ethoxy]phenoxy}-2-methylpropionic acid] | 160 | 62.2 | 90 | –
Cc1oc(-c2cccc(-c3ccccc3)c2)nc1CCOc1ccc(OC(C)(C)C(=O)O)cc1 [Example 3, 2-{4-[2-(2-Biphenyl-3-yl-5-methyloxazol-4-yl)ethoxy]phenoxy}-2-methylpropionic acid] | 69 | 51.2 | 93 | –
Cc1oc(-c2ccc(-c3cccc4ccccc34)cc2)nc1CCOc1ccc(OC(C)(C)C(=O)O)cc1 [Example 8, 2-Methyl-2-(4-{2-[5-methyl-2-(4-naphthalen-1-ylphenyl)oxazol-4-yl]ethoxy}phenoxy)propionic acid] | 41 | 31.8 | 19 | –
Cc1oc(-c2ccc(-c3ccccc3C(F)(F)F)cc2)nc1CCOc1ccc(OC(C)(C)C(=O)O)cc1 [Example 12, 2-Methyl-2-(4-{2-[5-methyl-2-(2′-trifluoromethyl-biphenyl-4-yl)-oxazol-4-yl]-ethoxy}-phenoxy)propionic acid] | 29 | 37.6 | 44 | –
Cc1oc(-c2cccc(-c3ccccc3)c2)nc1CCOc1cccc(OC(C)(C)C(=O)O)c1 [Example 22, 2-{3-[2-(2-Biphenyl-3-yl-5-methyloxazol-4-yl)ethoxy]phenoxy}-2-methylpropionic acid] | 191 | 73.6 | 102 | –
Cc1cc(OCCc2nc(-c3ccc(-c4ccccc4)cc3)oc2C)ccc1OC(C)(C)C(=O)O [Example 24, 2-{4-[2-(2-Biphenyl-4-yl-5-methyloxazol-4-yl)-ethoxy]-2-methylphenoxy}-2-methylpropionic acid] | 72 | 62.3 | 55 | –
CCCCc1cc(OC(C)(C)C(=O)O)ccc1OCCc1nc(-c2ccc(-c3ccccc3)cc2)oc1C [Example 31, 2-{4-[2-(2-Biphenyl-4-yl-5-methyloxazol-4-yl)ethoxy]-3-butylphenoxy}-2-methylpropionic acid] | 217 | 66.7 | 89 | –
Cc1oc(-c2ccc(-c3ccccc3)cc2)nc1CCOc1ccc(OC(C)(C)C(=O)O)c(-c2ccccc2)c1 [Example 38, 2-{5-[2-(2-Biphenyl-4-yl-5-methyloxazol-4-yl)-ethoxy]-biphenyl-2-yloxy}-2-methyl-propionic acid] | 34 | 53.3 | 59 | –
Cc1oc(-c2ccc(-c3ccccc3)cc2)nc1CCOc1ccc(OC(C)(C)C(=O)O)c2ccccc12 [Example 48, 2-{4-[2-(2-Biphenyl-4-yl-5-methyloxazol-4-yl)ethoxy]naphthalen-1-yloxy}-2-methyl propionic acid] | 89 | 43.7 | 31 | –
Cc1oc(-c2cccc(-c3ccccc3)c2)nc1CCOc1ccc(OC(C)(C)C(=O)O)c2ccccc12 [Example 49, 2-{4-[2-(2-Biphenyl-3-yl-5-methyloxazol-4-yl)ethoxy]naphthalen-1-yloxy}-2-methyl propionic acid] | 34 | 48.7 | 39 | –
Cc1oc(-c2ccc(-c3ccccc3)cc2)nc1CCOc1ccc(OC(C)(C)C(=O)O)c2c1CCCC2 [Example 50, 2-{4-[2-(2-Biphenyl-4-yl-5-methyloxazol-4-yl)-ethoxy]-5,6,7,8-tetrahydronaphthalen-1-yloxy}-2-methyl propionic acid] | 95 | 53.9 | 42 | –
Cc1oc(-c2cccc(-c3ccccc3)c2)nc1CCOc1ccc(OC(C)(C)C(=O)O)c2c1CCCC2 [Example 51, 2-{4-[2-(2-Biphenyl-3-yl-5-methyloxazol-4-yl)-ethoxy]-5,6,7,8-tetrahydronaphthalen-1-yloxy}-2-methyl propionic acid] | 53 | 41.6 | 31 | –
CCCc1cc(OCCc2nc(-c3ccc(-c4ccccc4)cc3)oc2C)ccc1OC(C)(C)C(=O)O [Example 60, 2-{4-[2-(2-Biphenyl-4-yl-5-methyloxazol-4-yl)-ethyloxy]-2-propylphenoxy}-2-methyl-propionic acid] | 38 | 40.8 | 68 | –
CCCc1cc(OCCc2nc(-c3ccc(-c4ccccc4)cc3)oc2C)ccc1OCC(=O)O [Example 62, {4-[2-(2-Biphenyl-4-yl-5-methyl-oxazol-4-yl)-ethoxy]-2-propyl-phenoxy}-acetic acid] | 56 | 45.5 | 36 | –
Cc1c(C)c2c(c(C)c1O)CCC(C)(COc1ccc(CC3SC(=O)NC3=O)cc1)O2 (stereo not shown) [Troglitazone, reference compound] | – | – | – | huPPARα CTF Efficacy [3]: 0%
CC(C)OC(=O)C(C)(C)Oc1ccc(C(=O)c2ccc(Cl)cc2)cc1 [fenofibrate, reference compound] | – | – | – | mean elevation of total serum cholesterol [1, 4]: 41%; mean percent increase of HDLc [1, 4]: 48%; mean reduction of triglycerides [1, 4]: 37%; HDLc peak area (FPLC) ([1]; fenofibrate 100 mg/kg oral, 7 days, vehicle 47-62 v-sec): 68-96 v-sec; average triglycerides values ([1]; fenofibrate 100 mg/kg oral, 7 days, vehicle 60-80 mg/dl): 33 to 58 mg/dL; average total serum cholesterol values ([1]; fenofibrate 100 mg/kg oral, 7 days, vehicle 148-180 mg/dl): 190 to 280 mg/dL
